Here are results for 20 molecules from US20220396569A1 (Carmot Therapeutics, Inc., priority 2021, published 2022).

The target of this assay is T1, human GLP-1 receptor (Homo sapiens, UniProt P43220).
T1 construct: expressed in transfected cells
T1 sequence (P43220 24-463): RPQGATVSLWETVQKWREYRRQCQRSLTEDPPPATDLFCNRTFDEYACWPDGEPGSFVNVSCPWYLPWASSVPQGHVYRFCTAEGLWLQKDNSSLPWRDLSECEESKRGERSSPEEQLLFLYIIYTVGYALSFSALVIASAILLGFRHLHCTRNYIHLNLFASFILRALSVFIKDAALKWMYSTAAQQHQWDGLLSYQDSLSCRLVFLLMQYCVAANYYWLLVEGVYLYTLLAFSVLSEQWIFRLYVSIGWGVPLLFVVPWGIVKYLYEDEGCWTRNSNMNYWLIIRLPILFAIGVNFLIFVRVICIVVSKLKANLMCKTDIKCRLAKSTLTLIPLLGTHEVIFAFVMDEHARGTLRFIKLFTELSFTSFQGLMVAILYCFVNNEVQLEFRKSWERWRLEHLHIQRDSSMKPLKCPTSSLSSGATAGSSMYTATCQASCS
The assay can be described thus: GLP-1R cAMP Assay (HitHunter cAMP accumulation). The format is cell-based. Particulars: cAMP accumulation, CHO cells stably overexpressing human GLP-1 receptor, 30 min treatment; read-out: EC50. How it is done: cAMP accumulation was measured in Chinese hamster ovary (CHO) cells stably overexpressing the human GLP-1 receptor using the HitHunter cAMP Assay for Small Molecules Kit (Eurofins). Briefly, cells were grown in Ham's F12 Nutrient Mix with 10% FBS, and lifted with Cell Dissociation Buffer, Enzyme free, PBS based (ThermoFisher). Cells were pelleted, and resuspended in Hank's buffered saline solution with 10 mM HEPES, and 625 μM 3-isobutyl-1-methylxanthine. The anti-cAMP antibody reagent was then added to cells at a 1:2 ratio and 5 μL of mixture was seeded in 384-well small volume white assay plates, at 10,000 cells/well. Cells were then treated with 50 nL compound using an ECHO 550 acoustic dispenser (Labcyte) in a 20-point dose response format in triplicate for 30 min. Cells were then lysed, and detection reagents added according to the manufacturer's protocol. After overnight incubation, luminescence was measured using a Perkin Elmer Envision plate reader. Dose response curves were analyzed using GraphPad Prism 9.0. […]
A general note: Changes in cAMP serve as a functional read-out for many G protein-coupled receptors.
Usually EC50 stands for the concentration that produces a half-maximal response. Consider `O=C(O)c1ccc2nc(CN3CC=C(c4ccnc(COc5ccc(Cl)cc5Cl)c4)C3)n(Cc3ncco3)c2c1` [Compound 392], for which the EC50 was < 50 nM.
The same measure for `O=C(O)c1ccc2nc(CN3CC=C(c4cc(COc5ccc(Cl)cc5F)ccn4)C3)n(C[C@@H]3CCO3)c2c1` [Compound 393]: 50 to 500 nM; for `O=C(O)c1ccc2nc(CN3CC=C(c4cc(COc5ccc(Cl)cc5F)ccn4)C3)n(Cc3ncco3)c2c1` [Compound 394, 2-[(3-{4-[(4-chloro-2-fluorophenoxy)methyl]pyridin-2-yl}-2,5-dihydro-1H-pyrrol-1-yl)methyl]-1-[(1,3-oxazol-2-yl)methyl]-1H-1,3-benzodiazole-6-carboxylic acid]: 50 to 500 nM.
As for `O=C(O)c1ccc2nc(CN3CCC(c4cc(COc5ccc(Cl)cc5F)ccn4)C3)n(Cc3ncco3)c2c1` (centres unmarked) [Compound 398, 2-[(3-{4-[(4-chloro-2-fluorophenoxy)methyl]pyridin-2-yl}pyrrolidin-1-yl)methyl]-1-[(1,3-oxazol-2-yl)methyl]-1H-1,3-benzodiazole-6-carboxylic acid], the figure is < 50 nM; as for `O=C(O)c1ccc2nc(CN3CCC(c4ccnc(COc5ccc(Cl)cc5Cl)c4)C3)n(C[C@@H]3CCO3)c2c1` (some centres unmarked) [Compound 399], < 50 nM; as for `N#Cc1ccc(OCc2cccc(C3=CCN(Cc4nc5ccc(C(=O)O)cc5n4C[C@@H]4CCO4)C3)c2)c(F)c1` [Compound 400, 2-[(3-{3-[(4-cyano-2-fluorophenoxy)methyl]phenyl}-2,5-dihydro-1H-pyrrol-1-yl)methyl]-1-{[(2S)-oxetan-2-yl]methyl}-1H-1,3-benzodiazole-6-carboxylic acid], < 50 nM.
As for `O=C(O)c1ccc2nc(CN3CC=C(c4cccc(COc5ccc(Cl)cc5Cl)c4)C3)n(C[C@@H]3CCO3)c2c1` [Compound 401, 2-[(3-{3-[(2,4-dichlorophenoxy)methyl]phenyl}-2,5-dihydro-1H-pyrrol-1-yl)methyl]-1-{[(2S)-oxetan-2-yl]methyl}-1H-1,3-benzodiazole-6-carboxylic acid], the figure is < 50 nM; as for `O=C(O)c1ccc2nc(CN3CC=C(c4ccnc(COc5ccc(Cl)cc5Cl)c4)C3)n(C[C@@H]3CCO3)c2c1` [Compound 402, 2-[(3-{2-[(2,4-dichlorophenoxy)methyl]pyridin-4-yl}-2,5-dihydro-1H-pyrrol-1-yl)methyl]-1-{[(2S)-oxetan-2-yl]methyl}-1H-1,3-benzodiazole-6-carboxylic acid], < 50 nM; as for `O=C(O)c1ccc2nc(CN3CC=C(c4ccnc(COc5ccc(Cl)cc5F)c4)C3)n(C[C@@H]3CCO3)c2c1` [Compound 403, 2-[(3-{2-[(4-chloro-2-fluorophenoxy)methyl]pyridin-4-yl}-2,5-dihydro-1H-pyrrol-1-yl)methyl]-1-{[(2S)-oxetan-2-yl]methyl}-1H-1,3-benzodiazole-6-carboxylic acid], < 50 nM.
`O=C(O)c1ccc2nc(CN3CC=C(c4ccnc(COc5ccc(Cl)cc5F)c4)C3)n(Cc3ncco3)c2c1` [Compound 404, 2-[(3-{2-[(4-chloro-2-fluorophenoxy)methyl]pyridin-4-yl}-2,5-dihydro-1H-pyrrol-1-yl)methyl]-1-[(1,3-oxazol-2-yl)methyl]-1H-1,3-benzodiazole-6-carboxylic acid]: the EC50 is < 50 nM.
The same measure for `N#Cc1ccc(OCc2nc(C3=CCN(Cc4nc5ccc(C(=O)O)cc5n4C[C@@H]4CCO4)C3)ccc2F)c(F)c1` [Compound 408, 2-[(3-{6-[(4-cyano-2-fluorophenoxy)methyl]-5-fluoropyridin-2-yl}-2,5-dihydro-1H-pyrrol-1-yl)methyl]-1-{[(2S)-oxetan-2-yl]methyl}-1H-1,3-benzodiazole-6-carboxylic acid]: < 50 nM; for `O=C(O)c1ccc2nc(CN3CCC(c4ccc(F)c(COc5ccc(Cl)cc5F)n4)C3)n(C[C@@H]3CCO3)c2c1` (stereo partly drawn) [Compound 409, 2-[(3-{6-[(4-chloro-2-fluorophenoxy)methyl]-5-fluoropyridin-2-yl}pyrrolidin-1-yl)methyl]-1-{[(2S)-oxetan-2-yl]methyl}-1H-1,3-benzodiazole-6-carboxylic acid]: < 50 nM.
The same measure for `N#Cc1ccc(OCc2nc(C3CCN(Cc4nc5ccc(C(=O)O)cc5n4C[C@@H]4CCO4)C3)ccc2F)c(F)c1` (stereo partly drawn) [Compound 410, 2-[(3-{6-[(4-cyano-2-fluorophenoxy)methyl]-5-fluoropyridin-2-yl}pyrrolidin-1-yl)methyl]-1-{[(2S)-oxetan-2-yl]methyl}-1H-1,3-benzodiazole-6-carboxylic acid]: < 50 nM; for `O=C(O)c1cc(F)c2nc(CN3CC=C(c4ccc(F)c(COc5ccc(Cl)cc5F)n4)C3)n(C[C@@H]3CCO3)c2c1` [Compound 413, 2-[(3-{6-[(4-chloro-2-fluorophenoxy)methyl]-5-fluoropyridin-2-yl}-2,5-dihydro-1H-pyrrol-1-yl)methyl]-4-fluoro-1-{[(2S)-oxetan-2-yl]methyl}-1H-1,3-benzodiazole-6-carboxylic acid]: < 50 nM; for `N#Cc1ccc(OCc2cccc([C@@H]3CCN(Cc4nc5ccc(C(=O)O)cc5n4C[C@@H]4CCO4)C3)c2)c(F)c1` [Compound 414, 2-{[(3S)-3-{3-[(4-cyano-2-fluorophenoxy)methyl]phenyl}pyrrolidin-1-yl]methyl}-1-{[(2S)-oxetan-2-yl]methyl}-1H-1,3-benzodiazole-6-carboxylic acid]: < 50 nM.
The same measure for `N#Cc1ccc(OCc2cccc([C@H]3CCN(Cc4nc5ccc(C(=O)O)cc5n4C[C@@H]4CCO4)C3)c2)c(F)c1` [Compound 415, 2-{[(3R)-3-{3-[(4-cyano-2-fluorophenoxy)methyl]phenyl}pyrrolidin-1-yl]methyl}-1-{[(2S)-oxetan-2-yl]methyl}-1H-1,3-benzodiazole-6-carboxylic acid]: 50 to 500 nM; for `N#Cc1ccc(OCc2nc(C3=CCN(Cc4nc5c(F)cc(C(=O)O)cc5n4CC4(CF)CC4)C3)ccc2F)c(F)c1` [Compound 416, 2-[(3-{6-[(4-cyano-2-fluorophenoxy)methyl]-5-fluoropyridin-2-yl}-2,5-dihydro-1H-pyrrol-1-yl)methyl]-4-fluoro-1-{[1-(fluoromethyl)cyclopropyl]methyl)-1H-1,3-benzodiazole-6-carboxylic acid]: < 50 nM; for `O=C(O)c1ccc2nc(CN3CC=C(c4cc(COc5ccc(Cl)cc5F)ccc4F)C3)n(C[C@@H]3CCO3)c2c1` [Compound 417, 2-[(3-{5-[(4-chloro-2-fluorophenoxy)methyl]-2-fluorophenyl}-2,5-dihydro-1H-pyrrol-1-yl)methyl]-1-{[(2S)-oxetan-2-yl]methyl}-1H-1,3-benzodiazole-6-carboxylic acid]: < 50 nM.
For `O=C(O)c1ccc2nc(CN3CC=C(c4cc(F)cc(COc5ccc(Cl)cc5F)c4)C3)n(C[C@@H]3CCO3)c2c1` [Compound 418, 2-[(3-{3-[(4-chloro-2-fluorophenoxy)methyl]-5-fluorophenyl}-2,5-dihydro-1H-pyrrol-1-yl)methyl]-1-{[(2S)-oxetan-2-yl]methyl}-1H-1,3-benzodiazole-6-carboxylic acid], the EC50 was < 50 nM.
As for `O=C(O)c1ccc2nc(CN3CCC(c4cc(COc5ccc(Cl)cc5F)ccc4F)C3)n(C[C@@H]3CCO3)c2c1` (stereo partly drawn) [Compound 419, 2-[(3-{5-[(4-chloro-2-fluorophenoxy)methyl]-2-fluorophenyl}pyrrolidin-1-yl)methyl]-1-{[(2S)-oxetan-2-yl]methyl}-1H-1,3-benzodiazole-6-carboxylic acid], the figure is < 50 nM.
